Target: T1, MAGL (Homo sapiens, UniProt Q99685)
T1 sequence (Q99685 1-303): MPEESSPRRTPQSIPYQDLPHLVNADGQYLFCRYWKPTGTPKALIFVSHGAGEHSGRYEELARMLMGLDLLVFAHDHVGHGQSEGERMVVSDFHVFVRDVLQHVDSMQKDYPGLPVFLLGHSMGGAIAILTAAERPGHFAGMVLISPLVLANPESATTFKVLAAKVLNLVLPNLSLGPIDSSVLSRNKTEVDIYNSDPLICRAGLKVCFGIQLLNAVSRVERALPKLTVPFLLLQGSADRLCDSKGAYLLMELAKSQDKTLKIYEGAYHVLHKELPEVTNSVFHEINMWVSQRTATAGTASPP
Experiment: 2-AG assay (MAGL inhibitory activity, hydrolysis of 2-arachidonoylglycerol followed by mass spectrometry)
Type: biochemical
Details: 50 pM MAGL, 8 μM 2-arachidonoylglycerol, 15 min preincubation, 30 min incubation at RT, concentration range 12.5 μM to 0.8 pM
In short: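 50 pM MAGL preincubated 15 min at RT with compound (12.5 μM to 0.8 pM) in 50 mM TRIS, 1 mM EDTA, 0.01% Tween, then 8 μM 2-arachidonoylglycerol for 30 min at RT. Arachidonic acid measured by RapidFire SPE–triple quadrupole MS in negative mode, normalised to d8-arachidonic acid.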

Structure (SMILES)	IC50
O=C1N[C@H](CCC(=O)N2CC3(CCC(Cc4ccc(OC(F)F)nc4)CC3)C2)CO1 [Example 191, (4R)-4-[3-[7-[[6-(Difluoro-methoxy)-3-pyridyl]methyl]-2-azaspiro[3.5]nonan-2-yl]-3-oxo-propyl] oxazolidin-2-one]	37 nM
CS(=O)(=O)c1ccc(CN2CCC3(CC2)CN(C(=O)CC[C@@H]2COC(=O)N2)C3)cc1 [Example 192, (4R)-4-[3-[7-[(4-Methyl-sulfonylphenyl)methyl]-2,7-diazaspiro[3.5]nonan-2-yl]-3-oxo-propyl] oxazolidin-2-one]	1220 nM
CS(=O)(=O)c1cccc(CN2CCC3(CC2)CN(C(=O)CC[C@@H]2COC(=O)N2)C3)c1 [Example 193, (4R)-4-[3-[7-[(3-Methyl-sulfonylphenyl)methyl]-2,7-diazaspiro[3.5]nonan-2-yl]-3-oxo-propyl] oxazolidin-2-one]	794 nM
O=C1N[C@H](CCC(=O)N2CC3(CCN(Cc4ccc(S(=O)(=O)C(F)(F)F)cc4)CC3)C2)CO1 [Example 194, (4R)-4-[3-Oxo-3-[7-[[4-(trifluoro-methylsulfonyl)phenyl]methyl]-2,7-diazaspiro[3.5]nonan-2-yl]propyl] oxazolidin-2-one]	61 nM
O=C1N[C@H](CCC(=O)N2CC3(CCN(Cc4cccc(S(=O)(=O)C(F)(F)F)c4)CC3)C2)CO1 [Example 195, (4R)-4-[3-Oxo-3-[7-[[3-(trifluoro-methylsulfonyl)phenyl]methyl]-2,7-diazaspiro [3.5]nonan-2-yl]propyl] oxazolidin-2-one]	28 nM
O=C1N[C@H](CCC(=O)N2CC3(CCN(Cc4ccc(C(F)(F)F)nc4)CC3)C2)CO1 [Example 196, (4R)-4-[3-Oxo-3-[7-[[6-(trifluoro-methyl)-3-pyridyl]methyl]-2,7-diazaspiro [3.5]nonan-2-yl]propyl] oxazolidin-2-one]	507 nM
O=C1N[C@H](CCC(=O)N2CC3(CCC(Cc4ccc(C(F)(F)F)nc4)C3)C2)CO1 (stereo partly drawn) [Example 198, (4R)-4-[3-Oxo-3-[6-[[6-(trifluoro-methyl)-3-pyridyl]methyl]-2-azaspiro[3.4]octan-2-yl]propyl]oxazolidin-2-one]	73 nM
COC(=O)c1cc(Cl)ccc1Oc1ccc(C2CN(C(=O)CC[C@@H]3COC(=O)N3)C2)cn1 [Example 199, Methyl 5-chloro-2-[[5-[1-[3-[(4R)-2-oxooxazolidin-4-yl]propanoyl]azetidin-3-yl]-2-pyridyl]oxy]benzoate]	14 nM
O=C1N[C@H](CCC(=O)N2CC(c3ccc(N4CCC(O)(C(F)(F)F)C4)nc3)C2)CO1 (stereo partly drawn) [Example 205, (+)- or (−)-(4R)-4-[3-[3-[6-[3-Hydroxy-3-(trifluoromethyl)pyrrolidin-1-yl]-3-pyridyl]azetidin-1-yl]-3-oxo-propyl]oxazolidin-2-one]	170 nM
O=C1N[C@H](CCC(=O)N2CC(c3ccc(N4CCC(O)(C(F)(F)F)C4)nc3)C2)CO1 (stereo partly drawn) [Example 207, (+)- or (−)-(4R)-4-[3-[3-[6-[3-Hydroxy-3-(trifluoromethyl)pyrrolidin-1-yl]-3-pyridyl]azetidin-1-yl]-3-oxo-propyl]oxazolidin-2-one]	17 nM
CS(=O)(=O)c1cc(Cl)ccc1-c1ccc(C2CN(C(=O)NCC3COC(=O)N3)C2)cc1 (stereo not drawn) [Example 212, 3-[4-(4-Chloro-2-methylsulfonyl-phenyl)phenyl]-N-[(2-oxooxazolidin-4-yl)methyl]azetidine-1-carboxamide]	25 nM

The next lines start with the values.

IC50	Structure (SMILES)
324 nM	O=C1N[C@H](CCC(=O)N2CC3(CCN(Cc4ccc(C(F)(F)F)cn4)CC3)C2)CO1 [Example 197, (4R)-4-[3-Oxo-3-[7-[[5-(trifluoro-methyl)-2-pyridyl]methyl]-2,7-diazaspiro [3.5]nonan-2-yl]propyl] oxazolidin-2-one]
37 nM	O=C1N[C@H](CCC(=O)N2CC(c3ccc([C@H]4C[C@@H](C(F)(F)F)C4)nc3)C2)CO1 [Example 202, Cis-(4R)-4-[3-Oxo-3-[3-[6-[3-(trifluoromethyl)cyclobutyl]-3-pyridyl]azetidin-1-yl]propyl]oxazolidin-2-one]
75 nM	O=C1N[C@H](CCC(=O)N2CC(c3ccc([C@H]4C[C@H](C(F)(F)F)C4)nc3)C2)CO1 [Example 203, Trans-(4R)-4-[3-Oxo-3-[3-[6-[3-(trifluoromethyl)cyclobutyl]-3-pyridyl]azetidin-1-yl]propyl]oxazolidin-2-one]
2250 nM	O=C1NCC(CCC(=O)N2CC3(CC(Cc4ccc(C(F)(F)F)nc4)C3)C2)N1 (stereo not drawn) [Example 213, 4-[3-Oxo-3-[6-[[6-(trifluoromethyl)-3-pyridyl]methyl]-2-azaspiro[3.3]heptan-2-yl]propyl]imidazolidin-2-one]
157 nM	O=C1NCC(CCC(=O)N2CC(c3ccc(C4(C(F)(F)F)CC4)cc3)C2)N1 (stereo not drawn) [Example 214, 4-[3-Oxo-3-[3-[4-[1-(trifluoromethyl)cyclopropyl]phenyl]azetidin-1-yl]propyl]imidazolidin-2-one]
860 nM	O=C1NCC(CCC(=O)N2CC(OCc3ccc(C(F)(F)F)cc3F)C2)N1 (stereo not drawn) [Example 215, 4-[3-[3-[[2-Fluoro-4-(trifluoromethyl)phenyl]methoxy]azetidin-1-yl]-3-oxo-propyl]imidazolidin-2-one]
68 nM	CS(=O)(=O)c1cc(Cl)ccc1-c1ccc(C2CN(C(=O)CCC3CNC(=O)N3)C2)cc1 (stereo not drawn) [Example 216, 4-[3-[3-[4-(4-Chloro-2-methylsulfonyl-phenyl)phenyl]azetidin-1-yl]-3-oxo-propyl]imidazolidin-2-one]

— patent US11981661B2, “Heterocyclic compounds” (Hoffmann-La Roche Inc., priority 2020, dated 2024)
